The values below come from patent US20070066680A1, “Benzofurans and benzothiophenes” (priority 2003, published 2007).

Marks after values point to notes of the source that are not given here.

One assay has as its system insulin secretion. The assay can be described thus: Test of insulin secretion according to Endocrinology, 1992 vol. 130 (1) pp. 167-178. Type of assay: cell-based. The following applies: Rattus norvegicus, INS1; compounds tested at 10^−5 M; read-out: SEC INS1 (% of insulin secretion). As to the method: Test of Insulin Secretion According to the Method Described in Endocrinology, 1992 vol. 130 (1) pp. 167-178
The insulin-secreting activities are collated in Table B. The compounds according to the invention were tested at a concentration of 10^−5 M.

The subject of assay [1] is isolated islets of Langerhans. The assay can be described thus: Insulin secretion in isolated rat islets of Langerhans, static incubation, RIA. The following applies: 90 minutes incubation, stimulation if factor >= 130%; for Insulin secretion stimulation factor, Product + G2.8 mM: glucose 2.8 mM; for Insulin secretion stimulation factor, Product + G8 mM: glucose 8 mM. Type of assay: cell-based. As for the experimental part: Study of the Activity on Isolated Rat Islets
Effect of the chemical compounds on insulin secretion as a function of the glucose concentration, in vitro, in isolated islets of Langerhans in static incubation (Table C):
The islets of Langerhans obtained by digestion of exocrine pancreatic tissue with collagenase, and then purified on Ficoll gradient, are incubated for 90 minutes in the presence of two concentrations of glucose, (2.8 mM or 8 mM), in the presence or absence of the chemical compound. The insulin secretion is assayed by RIA in the incubation medium.
The potential of the various chemical compounds to stimulate insulin secretion is estimated by calculating the stimulation factor*.
A compound stimulates the secretion of insulin if this factor is greater than or equal to 130% for a given dose of glucose. [formula] • where: • G=secretion of insulin (pmol/min. islet) in the presence of glucose alone
G+product=secretion of insulin (pmol/min. islet) in the presence of the same concentration of glucose and of the test chemical compound.

A further assay has as its system NOSTZ diabetic rats. In words: Antidiabetic activity (glycaemia) in NOSTZ diabetic rats. Type of assay: in vivo, rat. The following applies: repeated for 4 days, blood two hours after the fourth treatment. As for the experimental part: Study of the Antidiabetic Activity in NOSTZ rats Effect/Dose of compound 15, in vivo, in the case of NOSTZ diabetic rats (Table D): NOSTZ rats, made diabetic by injection of steptozotocin on the day of birth (Portha et al.; 1974), are treated, orally, daily by administration of 50-100-200 mg/kg of body weight of compound 15, of 200 mg/kg of metformin (reference antidiabetic agent) or of methylcellulose (controls). Blood samples are taken from the anaesthetized animal two hours after the fourth treatment. The glycaemia is measured via the colorimetric method using glucose dehydrogenase. The antidiabetic activity of the compounds of the formula (I) orally was determined on an experimental model of non-insulin-dependent diabetes, induced in rats with steptozotocin. The model of non-insulin-dependent diabetes is obtained in the rats by means of a neonatal injection of steptozotocin. The diabetic rats used are eight weeks old. The animals are housed, from the day of birth to the day of the experiment, in an animal house at a regulated temperature of 21 to 22° C. and subjected to a fixed cycle of light (from 7 a.m. to 7 p.m.) and darkness (from 7 p.m. to 7 a.m.). Their food consisted of a maintenance diet, and water and food were given “ad libitum”, with the exception of fasting two hours before the tests, during which period the food is removed (post-absorptive state). The rats are treated orally for one (D1) or four (D4) days with the test product. Two hours after the final administration of the product and 30 minutes after anaesthetizing the animals with pentobarbital sodium (Nembutal®), a 300 μl blood sample is taken from the end of the tail.

With `O=C(COc1c(C(=O)c2ccccc2)sc2ccccc12)c1ccc(Cl)cc1` [Product 1], the activity at 10 µM in the assay on insulin secretion stood at 206%. Also, in assay [1] (product 10^−5 M), the “Insulin secretion stimulation factor, Product + G2.8 mM” value turned out to be 98% and the “Insulin secretion stimulation factor, Product + G8 mM” value is 135%.
With `COc1ccccc1C(=O)COc1c(C(=O)c2ccccc2)sc2ccccc12` [Product 3], the activity at 10 µM with insulin secretion is 244%.
Still for that read-out and setting: the value for `COc1cccc(C(=O)COc2c(C(=O)c3ccccc3)sc3ccccc23)c1` [Product 8] was 193%; that for `COc1ccc(C(=O)COc2c(C(=O)c3ccccc3)sc3ccccc23)c(OC)c1` [Product 14] was 287%.
As to `CC(C)(C)C(=O)COc1c(C(=O)c2ccccc2)sc2ccccc12` [Product 15, 1-(2-benzoylbenzo[b]thiophen-3-yloxy)-3,3-dimethylbutan-2-one], in the assay with insulin secretion, the activity at 10 µM worked out at 207%. The “Insulin secretion stimulation factor, Product + G2.8 mM” value came out at 119% in assay [1] (product 10^−5 M) and 125% in assay [1] (product 10^−6 M). Moreover, the results for the “Insulin secretion stimulation factor, Product + G8 mM” value in assay [1] (product 10^−5 M) and in assay [1] (product 10^−6 M) were 152% and 183%, respectively. The “Percentage of variation of glycaemia relative to the controls” value in the assay with NOSTZ diabetic rats (50 mg/kg/day orally) is reported as −13%*; with NOSTZ diabetic rats (100 mg/kg/day orally), −23%**; in the assay on NOSTZ diabetic rats (200 mg/kg/day orally) it was −18%**.
As to `N#Cc1ccc(C(=O)c2sc3ccccc3c2OCc2ccccc2C#N)cc1` [Product 42], in the assay with insulin secretion, the activity at 10 µM is 283%.
With `N#Cc1ccc(C(=O)c2sc3ccccc3c2OCc2cccc(C#N)c2)cc1` [Product 43], in the assay on insulin secretion, the activity at 10 µM turned out to be 257%. Besides, in assay [1] (product 10^−5 M), the “Insulin secretion stimulation factor, Product + G2.8 mM” value turned out to be 108% and the “Insulin secretion stimulation factor, Product + G8 mM” value is reported as 135%.
With `N#Cc1ccc(C(=O)c2sc3ccccc3c2OCc2c(Cl)cccc2Cl)cc1` [Product 55], in the assay with insulin secretion, the activity at 10 µM stood at 174%.
Still for that read-out and setting: the value for `N#Cc1ccc(C(=O)c2sc3ccccc3c2OCc2ccccc2)cc1` [Product 59] was 229%; that for `CS(=O)(=O)c1ccc(COc2c(C(=O)c3ccc(C#N)cc3)sc3ccccc23)cc1` [Product 66] was 202%.
Same read-out and setting: in the case of `N#Cc1ccc(C(=O)c2sc3ccccc3c2OCC(=O)c2ccccc2)cc1` [Product 69] it was 179%; in that of `COc1ccccc1C(=O)COc1c(C(=O)c2ccc(C#N)cc2)sc2ccccc12` [Product 70], 189%; in that of `Cc1ccc(C(=O)COc2c(C(=O)c3ccc(C#N)cc3)sc3ccccc23)cc1` [Product 72], 185%.
Same read-out and setting: the value for `COc1ccccc1C(=O)COc1c(C(=O)c2ccccc2)oc2ccccc12` [Product 86] was 164%.
As for `CN(C)C(=N)N=C(N)N` [metformin, reference compound], the “Percentage of variation of glycaemia relative to the controls” value in the assay on NOSTZ diabetic rats (200 mg/kg/day orally) is listed as −29%**.
